In brackets after ≈: the same amount, converted by molar mass.
Columns and labels:
S. aureus or MRSA = format: cell-based, Staphylococcus aureus; details: Table 4, range over 5 strains
Procedure: (§1) MIC of cationic polymers and polypeptide were tested in accordance with the Clinical and Laboratory Standards Institute (CLSI) guidelines against a panel of antibiotic-susceptible/-resistant bacteria, yeasts and fungal strains. Bacterial and yeast strains were cultured on tryptic soy agar (TSA) and Sabaroud dextrose agar (SDA) plates (Neogen Corporation, MI, USA) overnight respectively. Inocula in Mueller-Hinton broth (MHB) for bacteria and SD broth for C. albicans (Beckton Dickinson, MD, USA) were prepared at 0.5 McFarland. The suspensions were then diluted to a final concentration of 10^5 CFU/ml in a 96-well microtitre plate (SPL Life Sciences Co., Ltd, Korea). Polymers and polypeptides were added to the inoculum in 2-fold serial dilutions to give a range of concentrations from 2-1024 μg/ml. […] The antimicrobial activities were compared with topical antiseptic agents, BAK and CHX. A similar protocol was used to determine the MIC of εPL against antibiotic-resistant pathogens. MIC of the polymers and polypeptides against Fusarium strains was determined in full strength RPMI-1640 buffer. Fungal spores were recovered from a 5-day old culture on a potato dextrose agar and diluted to a concentration of 10^5 spores/ml in 0.9% saline solution. A further 50-fold dilution was done in RPMI-1640 buffer and 100 μl of the inoculum was added to 96 well plates containing an equal volume of test peptides at 2-fold serial dilutions. 200 μl of inoculum without any additives and buffer alone served as positive and negative controls, respectively. The plate was then incubated at 30° C. for 48 h. The absorbance value was measured at 600 nm as before and the lowest concentration of the peptide which inhibited 90% growth was reported. All MIC determinations were performed in duplicates.
(§2) MICs of polymers/antibiotics were determined using the microdilution method in 96 well microtitre plates (SPL Life Sciences Co., Ltd, Korea), following the guidelines of Clinical and Laboratory Standards Institute (CLSI) document M100-S18. Briefly, polymers (1-512 μg/ml) or antibiotics were dissolved in appropriate media (Mueller Hinton broth, MHB for bacteria; Sabaroud's Dextrose (SD) broth for yeasts and RPMI buffer for Fusarium strains) and 100 μl of this was then mixed with an equal volume of microbial inoculum (OD600=˜0.08) in the same media and shaken in a closed incubator.

B. cereus ATCC 11778 = details: B. cereus ATCC 11778, Table 5
Procedure: as §1, with “Korea).” for “Korea). Polymers and polypeptides were added to the inoculum in 2-fold serial dilutions to give a range of concentrations from 2-1024 μg/ml.”
as §2

C. albicans = system: C. albicans
Procedure: as §1, with “Korea).” for “Korea). Polymers and polypeptides were added to the inoculum in 2-fold serial dilutions to give a range of concentrations from 2-1024 μg/ml.”
as §2

C. parapsilosis = details: C. parpsilosis (n = 9), Table 5
Procedure: as §1, with “Korea).” for “Korea). Polymers and polypeptides were added to the inoculum in 2-fold serial dilutions to give a range of concentrations from 2-1024 μg/ml.”
as §2

C. tropicalis = C. tropicalis (n = 9), Table 5
Procedure: as §1, with “Korea).” for “Korea). Polymers and polypeptides were added to the inoculum in 2-fold serial dilutions to give a range of concentrations from 2-1024 μg/ml.”
as §2

[1] = system: Vancomycin-resistant Enterococcus (VRE); details: VRE (n = 21 strains), Table 5
Procedure: as §1, with “Korea).” for “Korea). Polymers and polypeptides were added to the inoculum in 2-fold serial dilutions to give a range of concentrations from 2-1024 μg/ml.”
as §2

VRE 1002 = experiment: SYTOX green (SG) uptake assay and bacterial viability; format: cell-based, Enterococcus
Procedure: To discern the pore-forming ability of modified peptide in comparison with melittin, the SYTOX green (SG) uptake assay was performed upon exposure of the peptides and their bactericidal properties were determined. […] Therefore the fluorescence intensity is taken to be proportional to the degree of cell membrane disruption caused by test peptides.

**Q.** `CC[C@H](C)[C@H](NC(=O)CN)C(=O)NCC(=O)N[C@@H](C)C(=O)N[C@H](C(=O)N[C@@H](CC(C)C)C(=O)N[C@@H](CCCCN)C(=O)N[C@H](C(=O)N[C@@H](CC(C)C)C(=O)N[C@H](C(=O)N[C@H](C(=O)NCC(=O)N[C@@H](CC(C)C)C(=O)N1CCC[C@H]1C(=O)N[C@@H](C)C(=O)N[C@@H](CC(C)C)C(=O)N[C@H](C(=O)N[C@@H](CO)C(=O)N[C@@H](Cc1c[nH]c2ccccc12)C(=O)N[C@H](C(=O)N[C@@H](CCCCN)C(=O)N[C@@H](CCCNC(=N)N)C(=O)N[C@@H](CCCCN)C(=O)N[C@@H](CCCNC(=N)N)C(=O)N[C@@H](CCC(N)=O)C(=O)N[C@@H](CCC(N)=O)C(N)=O)[C@@H](C)CC)[C@@H](C)CC)[C@@H](C)O)[C@@H](C)O)C(C)C)C(C)C` [Melittin] was tested. Which “MIC against S. aureus or MRSA (n = 5)” value (S. aureus or MRSA) did it give?
**A.** The value was 4 to 8 µg/mL.

**Q.** What about the MIC (B. cereus ATCC 11778) of the same molecule?
**A.** The MIC was 8 µg/mL (≈ 2.81 µM).

**Q.** What about the MIC (C. albicans; C. albicans (n = 5), Table 5) of the same molecule?
**A.** Its MIC is 2 to 4 µg/mL.

**Q.** What about the “MIC against C. albicans (n = 5)” value (C. albicans; Table 4, range over 5 strains) of the same molecule?
**A.** The value was 2 to 4 µg/mL.

**Q.** What about the MIC (C. parapsilosis) of the same molecule?
**A.** Its MIC is 16 to 64 µg/mL.

**Q.** What about the MIC (C. tropicalis) of the same molecule?
**A.** The MIC was 8 to 64 µg/mL.

**Q.** And the MIC90 ([1]; 90% of strains susceptible)?
**A.** Its MIC90 is “(MIC90 = 8)^2 μg/ml”.

**Q.** And the MIC ([1]; range)?
**A.** Its MIC is 0.5 to 8 µg/mL.

**Q.** What about the SG uptake (VRE 1002; VRE 1002, at 1×MIC) of the same molecule?
**A.** The SG uptake was 79.2%.

**Q.** And the SG uptake (VRE 1002; VRE 1002, at 2×MIC)?
**A.** Its SG uptake is 89.7%.
